Assay results published in patent US20210355104A1, “ADENOSINE RECEPTOR BINDING COMPOUNDS” (Nikang Therapeuticsm Inc., priority 2018, published 2021).
Values joined by “and” are separate entries in the source; they are usually repeats but may differ in a detail not shown here. Identical values can stand only once.

These compounds were tested against Adenosine A2A receptor (Homo sapiens, UniProt P29274) (assay: cAMP assay in 293A cells stably expressing the adenosine A2A receptor (CGS21680 stimulation, HTRF)). Conditions: 293A-A2AR cells, 0.1% BSA, 1 uM CGS; read-out: cAMP (nM) 0.1% BSA, 1 uM CGS.
Assay type: cell-based
Parameters: expressed in transfected cells; host or cells: 293A cells (Invitrogen, Cat# R705-07) infected with A2A-expressing lentivirus (custom packaged by Biosettia), puromycin selected

Adenosine A2A receptor, sequence (P29274 whole entry): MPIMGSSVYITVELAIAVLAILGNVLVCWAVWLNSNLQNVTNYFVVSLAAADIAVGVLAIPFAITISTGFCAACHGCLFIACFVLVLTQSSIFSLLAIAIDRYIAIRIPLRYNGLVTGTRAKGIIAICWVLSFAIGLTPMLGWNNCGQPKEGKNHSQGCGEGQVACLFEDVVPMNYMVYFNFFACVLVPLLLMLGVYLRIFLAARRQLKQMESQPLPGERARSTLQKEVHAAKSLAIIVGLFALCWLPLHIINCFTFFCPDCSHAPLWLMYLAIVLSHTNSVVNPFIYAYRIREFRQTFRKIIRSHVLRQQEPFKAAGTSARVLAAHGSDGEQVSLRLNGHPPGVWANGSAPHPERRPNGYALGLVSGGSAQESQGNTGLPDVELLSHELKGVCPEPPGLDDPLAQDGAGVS

SMILES	IC50
CCn1c(COc2nc(N)nc(-c3ccc(F)cc3)c2-c2cc(C)nc(C(F)F)c2)nc2cccc(C(=O)O)c21 [Example 344, 2-(((2-amino-5-(2-(difluoromethyl)-6-methylpyridin-4-yl)-6-(4-fluorophenyl)pyrimidin-4-yl)oxy)methyl)-1-ethyl-1H-benzo[d]imidazole-7-carboxylic acid]	> 25000 nM
CCn1c(COc2nc(N)nc(-c3ccc(F)cc3)c2-c2cc(C)nc(C(F)F)c2)nc2c(C(=O)O)cccc21 [Example 345, 2-(((2-amino-5-(2-(difluoromethyl)-6-methylpyridin-4-yl)-6-(4-fluorophenyl)pyrimidin-4-yl)oxy)methyl)-1-ethyl-1H-benzo[d]imidazole-4-carboxylic acid]	10300 nM
Cc1cc(-c2c(NCc3nc4ccccc4n3C)nc(N)nc2-c2ccc(F)cc2)cc(C(F)F)n1 [Example 351, 5-(2-(difluoromethyl)-6-methylpyridin-4-yl)-6-(4-fluorophenyl)-N^4-((1-methyl-1H-benzo[d]imidazol-2-yl)methyl)pyrimidine-2,4-diamine]	13100 nM
Cc1cc(-c2c(OCc3nc4cc(C(C)(C)O)ccc4n3C)nc(N)nc2-c2ccc(F)cc2)cc(C(F)F)n1 [Example 357, 2-(2-(((2-amino-5-(2-(difluoromethyl)-6-methylpyridin-4-yl)-6-(4-fluorophenyl)pyrimidin-4-yl)oxy)methyl)-1-methyl-1H-benzo[d]imidazol-5-yl)propan-2-ol]	3910 nM and 3930 nM
Cc1cc(-c2c(OCc3nc4ccc(C(C)(C)O)cc4n3C)nc(N)nc2-c2ccc(F)cc2)cc(C(F)F)n1 [Example 358, 2-(2-(((2-amino-5-(2-(difluoromethyl)-6-methylpyridin-4-yl)-6-(4-fluorophenyl)pyrimidin-4-yl)oxy)methyl)-1-methyl-1H-benzo[d]imidazol-6-yl)propan-2-ol]	940 nM and 1060 nM
Cc1cc(-c2c(OCc3nc4c(C(C)(C)C(=O)O)cccc4n3C)nc(N)nc2-c2ccc(F)cc2)cc(C(F)F)n1 [Example 359, 2-(2-(((2-amino-5-(2-(difluoromethyl)-6-methylpyridin-4-yl)-6-(4-fluorophenyl)pyrimidin-4-yl)oxy)methyl)-1-methyl-1H-benzo[d]imidazol-4-yl)-2-methylpropanoic acid]	9470 nM and 8890 nM
CCC(C)(C#N)c1cccc(COc2nc(N)nc(-c3ccc(F)cc3)c2-c2cc(C)nc(C(F)F)c2)n1 (stereo not drawn) [Example 360, 2-(6-(((2-amino-5-(2-(difluoromethyl)-6-methylpyridin-4-yl)-6-(4-fluorophenyl)pyrimidin-4-yl)oxy)methyl)pyridin-2-yl)-2-methylbutanenitrile]	50 nM and 51 nM and 115 nM
Cc1cc(-c2c(OCc3nc4c(C(C)(C)O)cccc4n3C)nc(N)nc2-c2ccc(F)cc2)cc(C(F)F)n1 [Example 361, 2-(2-(((2-amino-5-(2-(difluoromethyl)-6-methylpyridin-4-yl)-6-(4-fluorophenyl)pyrimidin-4-yl)oxy)methyl)-1-methyl-1H-benzo[d]imidazol-4-yl)propan-2-ol]	854 nM and 1110 nM
Cc1cc(-c2c(OCCc3cccc(C(C)(C)C#N)n3)nc(N)nc2-c2ccc(F)cc2)cc(C(F)F)n1 [Example 362, 2-(6-(2-((2-amino-5-(2-(difluoromethyl)-6-methylpyridin-4-yl)-6-(4-fluorophenyl)pyrimidin-4-yl)oxy)ethyl)pyridin-2-yl)-2-methylpropanenitrile]	85 nM and 158 nM and 45 nM
Cc1cc(-c2c(OCc3ccccn3)nc(NCC(=O)O)nc2-c2ccc(F)cc2)cc(C(F)F)n1 [Example 364, (5-(2-(difluoromethyl)-6-methylpyridin-4-yl)-4-(4-fluorophenyl)-6-(pyridin-2-ylmethoxy)pyrimidin-2-yl)glycine]	> 25000 nM
CCn1c(COc2nc(N)nc(-c3ccc(F)cc3)c2-c2cc(C)nc(C(F)F)c2)nc2ccc(C(C)(C)C(=O)O)nc21 [Example 365, 2-(2-(((2-amino-5-(2-(difluoromethyl)-6-methylpyridin-4-yl)-6-(4-fluorophenyl)pyrimidin-4-yl)oxy)methyl)-3-ethyl-3H-imidazo[4,5-b]pyridin-5-yl)-2-methylpropanoic acid]	> 25000 nM
Cc1cc(-c2c(OCc3ccc(F)c(C(C)(C)C(=O)O)c3)nc(N)nc2-c2ccc(F)cc2)cc(C(F)F)n1 [Example 367, 2-(5-(((2-amino-5-(2-(difluoromethyl)-6-methylpyridin-4-yl)-6-(4-fluorophenyl)pyrimidin-4-yl)oxy)methyl)-2-fluorophenyl)-2-methylpropanoic acid]	11800 nM
Cc1cc(-c2c(OCc3nc4ccc(C(C)(C)C(=O)O)cc4n3C)nc(N)nc2-c2ccc(F)cc2)cc(C(F)F)n1 [Example 368, 2-(2-(((2-amino-5-(2-(difluoromethyl)-6-methylpyridin-4-yl)-6-(4-fluorophenyl)pyrimidin-4-yl)oxy)methyl)-1-methyl-1H-benzo[d]imidazol-6-yl)-2-methylpropanoic acid]	> 25000 nM
Cc1cc(-c2c(OCc3nc4cc(C(C)(C)C(=O)O)ccc4n3C)nc(N)nc2-c2ccc(F)cc2)cc(C(F)F)n1 [Example 369, 2-(2-(((2-amino-5-(2-(difluoromethyl)-6-methylpyridin-4-yl)-6-(4-fluorophenyl)pyrimidin-4-yl)oxy)methyl)-1-methyl-1H-benzo[d]imidazol-5-yl)-2-methylpropanoic acid]	> 25000 nM
Cc1cc(-c2c(OCc3cccc(C(C)(C)C(=O)O)c3F)nc(N)nc2-c2ccc(F)cc2)cc(C(F)F)n1 [Example 370, 2-(3-(((2-amino-5-(2-(difluoromethyl)-6-methylpyridin-4-yl)-6-(4-fluorophenyl)pyrimidin-4-yl)oxy)methyl)-2-fluorophenyl)-2-methylpropanoic acid]	5430 nM
Cc1cc(-c2c(OCCN(C)c3nccc(C(C)(C)C#N)n3)nc(N)nc2-c2ccc(F)cc2)cc(C(F)F)n1 [Example 372, 2-(2-((2-((2-amino-5-(2-(difluoromethyl)-6-methylpyridin-4-yl)-6-(4-fluorophenyl)pyrimidin-4-yl)oxy)ethyl)(methyl)amino)pyrimidin-4-yl)-2-methylpropanenitrile]	128 nM and 130 nM and 160 nM

The next lines start with the values.

IC50	SMILES
1400 nM	Cc1cc(-c2c(OCc3nc4ccccn4n3)nc(N)nc2-c2ccc(F)cc2)cc(C(F)F)n1 [Example 341, 4-([1,2,4]triazolo[1,5-a]pyridin-2-ylmethoxy)-5-(2-(difluoromethyl)-6-methylpyridin-4-yl)-6-(4-fluorophenyl)pyrimidin-2-amine]
419 nM	Cc1cc(-c2c(OCc3nc4ccccc4o3)nc(N)nc2-c2ccc(F)cc2)cc(C(F)F)n1 [Example 342, 4-(benzo[d]oxazol-2-ylmethoxy)-5-(2-(difluoromethyl)-6-methylpyridin-4-yl)-6-(4-fluorophenyl)pyrimidin-2-amine]
1340 nM	Cc1cc(-c2c(OCc3cc4ccccc4s3)nc(N)nc2-c2ccc(F)cc2)cc(C(F)F)n1 [Example 343, 4-(benzo[b]thiophen-2-ylmethoxy)-5-(2-(difluoromethyl)-6-methylpyridin-4-yl)-6-(4-fluorophenyl)pyrimidin-2-amine]
3990 nM	Cc1cc(-c2c(OCc3cc4c(s3)CCCC4)nc(N)nc2-c2ccc(F)cc2)cc(C(F)F)n1 [Example 346, 5-(2-(difluoromethyl)-6-methylpyridin-4-yl)-4-(4-fluorophenyl)-6-((4,5,6,7-tetrahydrobenzo[b]thiophen-2-yl)methoxy)pyrimidin-2-amine]
634 nM	Cc1cc(-c2c(OCc3nc4ccccc4s3)nc(N)nc2-c2ccc(F)cc2)cc(C(F)F)n1 [Example 347, 4-(benzo[d]thiazol-2-ylmethoxy)-5-(2-(difluoromethyl)-6-methylpyridin-4-yl)-6-(4-fluorophenyl)pyrimidin-2-amine]
2620 nM	Cc1cc(-c2c(OCCc3ccncc3)nc(N)nc2-c2ccc(F)cc2)cc(C(F)F)n1 [Example 348, 5-(2-(difluoromethyl)-6-methylpyridin-4-yl)-4-(4-fluorophenyl)-6-(2-(pyridin-4-yl)ethoxy)pyrimidin-2-amine]
1790 nM	Cc1cc(-c2c(OCc3nc4n(n3)CCCC4)nc(N)nc2-c2ccc(F)cc2)cc(C(F)F)n1 [Example 352, 5-(2-(difluoromethyl)-6-methylpyridin-4-yl)-4-(4-fluorophenyl)-6-((5,6,7,8-tetrahydro-[1,2,4]triazolo[1,5-a]pyridin-2-yl)methoxy)pyrimidin-2-amine]
1420 nM	Cc1cc(-c2c(NCc3cccc(C(C)(C)C#N)n3)nc(N)nc2-c2ccc(F)cc2)cc(C(F)F)n1 [Example 356, 2-(6-(((2-amino-5-(2-(difluoromethyl)-6-methylpyridin-4-yl)-6-(4-fluorophenyl)pyrimidin-4-yl)amino)methyl)pyridin-2-yl)-2-methylpropanenitrile]
4800 nM	Cc1cc(-c2c(OCc3cccc(C(C)(C)C(=O)O)c3)nc(N)nc2-c2ccc(F)cc2)cc(C(F)F)n1 [Example 363, 2-(3-(((2-amino-5-(2-(difluoromethyl)-6-methylpyridin-4-yl)-6-(4-fluorophenyl)pyrimidin-4-yl)oxy)methyl)phenyl)-2-methylpropanoic acid]
1690 nM	Cc1cc(-c2c(OCc3nc(C(C)(C)O)cs3)nc(N)nc2-c2ccc(F)cc2)cc(C(F)F)n1 [Example 366, 2-(2-(((2-amino-5-(2-(difluoromethyl)-6-methylpyridin-4-yl)-6-(4-fluorophenyl)pyrimidin-4-yl)oxy)methyl)thiazol-4-yl)propan-2-ol]
2360 nM	Cc1cc(-c2c(OCc3ncc(C(C)(C)O)s3)nc(N)nc2-c2ccc(F)cc2)cc(C(F)F)n1 [Example 371, 2-(2-(((2-amino-5-(2-(difluoromethyl)-6-methylpyridin-4-yl)-6-(4-fluorophenyl)pyrimidin-4-yl)oxy)methyl)thiazol-5-yl)propan-2-ol]
